This note sets out measurements from patent US20230203099A1, “CYCLOPHILIN INHIBITORS AND USES THEREOF” (priority 2020, published 2023).

Like-named read-outs stand apart in the source and are kept apart here.

Assay [1] has as its target recombinant Calcineurin (CaN) (Homo sapiens, UniProt P63098+Q08209). The assay can be described thus: Calcineurin phosphatase inhibition assay without cyclophilin A. The format is biochemical.
Method: (§1) Cyclophilin A and D peptidyl-prolyl isomerase functional assays using human recombinant enzymes (PPlase assay), as well as in a calcineurin inhibition assay with and without cyclophilin A are conducted.
(§2) The compounds are supplied as a dry powder or oils and made up as a 10 mM stock solution in 100% DMSO. Subsequent dilutions were made in 100% DMSO for use in all assays.
(§3) Calcineurin Phosphatase Inhibition Assay With and Without Cyclophilin A
(§4) This colorimetric 96 well assay is designed for inhibitor screening of recombinant Calcineurin (CaN). […] In a 96-well plate, two dilution series are prepared, one with the cyclophilin A enzyme (7-point) and another without (4-point). An assay buffer/calcineurin/calmodulin master mix is added followed by the phosphopeptide substrate (RII). After incubation at 30° C. the reaction is stopped by the addition of malachite green/molybdate reagent. The coloured complex formed with liberated phosphate is quantified by reading the absorbance at 620 nm. The blank corrected data was plotted against inhibitor concentration to determine an IC50 value.
A further assay deals with permeabilized HepG2. Description: Calcium retention capacity (CRC) assay in permeabilized HepG2. In kind it is cell-based. Particulars: Homo sapiens.
Another assay concerns the target Human CypD (Homo sapiens, UniProt P30405). Description: Cyclophilin peptidyl-prolyl isomerase functional assay (PPIase), cyclophilin D. The format is biochemical.
In assay [2] the target is recombinant Calcineurin (CaN) + CypA (Homo sapiens, UniProt P62937+P63098+Q08209). The assay can be described thus: Calcineurin phosphatase inhibition assay with cyclophilin A. In kind it is biochemical. Particulars: RII phosphopeptide substrate.
Method: as §1, §2, §3, §4
The target in the next assay is Human CypA (Homo sapiens, UniProt P62937). Description: Cyclophilin peptidyl-prolyl isomerase functional assay (PPIase), cyclophilin A. In kind it is biochemical. Conditions: human recombinant enzyme, 10° C.; read-out: Inhibition (Ki, nM) Human CypA.
The mark [3] stands for this setting: without cyclophilin A, RII phosphopeptide substrate, read-out: Calcineurin Inhibition (IC50, nM) −CypA.
Setting [4] is: permeabilized HepG2, Calcium Green 5N, read-out: Calcium Retention Capacity EC50.
The mark [5] stands for this setting: human recombinant enzyme, 10° C., read-out: Inhibition (Ki, nM) Human CypD.

Broadly, the IC50 is the concentration at which inhibition is half-maximal. By EC50 is commonly meant the midpoint of the concentration-response curve. One may read the Ki as a dissociation constant, usually derived from enzyme kinetics or from competition with a known ligand.

Sequence of Human CypD (P30405 30-207): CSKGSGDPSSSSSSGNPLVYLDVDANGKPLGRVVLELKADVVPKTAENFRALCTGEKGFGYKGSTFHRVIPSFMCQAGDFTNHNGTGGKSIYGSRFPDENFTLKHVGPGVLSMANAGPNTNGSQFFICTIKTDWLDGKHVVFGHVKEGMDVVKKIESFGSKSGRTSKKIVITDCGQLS
Sequence of recombinant Calcineurin (CaN) (P63098 whole entry, other chains not shown): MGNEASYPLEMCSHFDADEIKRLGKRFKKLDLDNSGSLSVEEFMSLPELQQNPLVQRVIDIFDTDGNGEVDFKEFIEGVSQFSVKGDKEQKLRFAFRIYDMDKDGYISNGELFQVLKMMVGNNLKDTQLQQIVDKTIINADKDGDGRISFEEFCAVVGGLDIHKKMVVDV
Sequence of Human CypA (P62937 whole entry): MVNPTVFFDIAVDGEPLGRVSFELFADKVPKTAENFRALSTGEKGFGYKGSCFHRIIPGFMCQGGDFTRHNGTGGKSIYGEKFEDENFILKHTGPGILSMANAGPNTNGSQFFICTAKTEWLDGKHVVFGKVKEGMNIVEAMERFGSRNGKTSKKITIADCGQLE
Sequence of recombinant Calcineurin (CaN) + CypA (P62937 whole entry, other chains not shown): as the sequence (P62937 whole entry) above
Sequence of recombinant Calcineurin (CaN) + CypA (P63098 whole entry, other chains not shown): as the sequence (P63098 whole entry, other chains not shown) above
Method for Human CypA: as §1, §2
(§5) Cyclophilin Peptidyl-Prolyl Isomerase Functional Assay
(§6) Measurements are performed using an Agilent 8453 spectrophotometer. Assay buffer was cooled to 10° C. (with stirring) in a precision glass cuvette and inhibitor is added from a DMSO stock solution to afford a final concentration of <1% DMSO. A blank spectrum is obtained and then enzyme and substrate are added and the change in absorbance measured over 5 min. A first order rate is fitted to the absorbance data to obtain a rate constant (first 10 to 15 s were eliminated due to mixing). The catalytic rate is calculated from the enzymatic rate minus the background rate. The enzymatic rate constant, determined in duplicate at each inhibitor concentration, is plotted against inhibitor concentration and a non-linear fit by SigmaPlot generated a Ki.
Method for Human CypD: as §1, §2, §5, §6
Method for permeabilized HepG2: The compounds are also tested in a calcium retention capacity (CRC) assay in permeabilized HepG2.
as §2
Calcium Retention Capacity (CRC) Assay in Permeabilized HepG2
HepG2 cells are permeabilised with 100 μM digitonin for 10 min in ice cold buffer containing 1 mM EGTA. Following two wash steps to remove the digitonin, the cells are plated into 96 well black and clear plates at 1e^6 cell per well in 180 μL assay buffer containing 0.5 μM Calcium Green 5N. Compounds dilutions are made in DMSO to 1000-fold the final concentration, diluted 1:100 in assay buffer and added to the assay as 20 μL per well. The assay buffer contained 5 mM glutamate and 2.5 mM malate. The cell plate is immediately run on the FLIPR Tetra™ which added 5 μL of 200 μM (5 μM) calcium chloride every 5 minutes whilst reading the plate every 3 seconds. The area under the curve at each concentration of compound is calculated. EC50 values are calculated.
The assay as described above measures the loss of inhibition based on the release of calcium, which is determined by increased intensity of fluorescence reporting of the calcium-binding dye used in the assay.

For the compound `CC[C@@H]1NC(=O)[C@H]([C@H](O)[C@H](C)C/C=C/c2ccc(C)cc2)N(C)C(=O)[C@H](C(C)C)N(C)C(=O)[C@H](CC(C)C)N(C)C(=O)[C@H](CC(C)C)N(C)C(=O)[C@@H](C)NC(=O)[C@H](C)NC(=O)[C@H](CC(C)C)N(C)C(=O)[C@H](C(C)C)NC(=O)[C@H](CC(C)C)N(C)C(=O)C(OCCN(C)C)N(C)C1=O` (some centres unmarked) [Compound 2], the half-inhibitory concentration (IC50) in assay [1] worked out at 3950 nM. The concentration giving a half-maximal response (EC50) with permeabilized HepG2 (HepG2, read-out: Calcium Retention Capacity EC50 (nM)) turned out to be 512 nM. In addition, the Ki at Human CypD worked out at 11 nM.

For `CC[C@@H]1NC(=O)[C@H]([C@H](O)[C@H](C)C/C=C/c2ccc(C(F)(F)F)cc2)N(C)C(=O)[C@H](C(C)C)N(C)C(=O)[C@H](CC(C)C)N(C)C(=O)[C@H](CC(C)C)N(C)C(=O)[C@@H](C)NC(=O)[C@H](C)NC(=O)[C@H](CC(C)C)N(C)C(=O)[C@H](C(C)C)NC(=O)[C@H](CC(C)C)N(C)C(=O)C(OCCN(C)C)N(C)C1=O` (some centres unmarked) [Compound 3], the IC50 in assay [1] (setting [3]) is above 10000 nM. In the assay on permeabilized HepG2 (setting [4]), the EC50 was found to be 1370 nM. Besides, the Ki on Human CypD (setting [5]) is 9.4 nM.

For `CC[C@@H]1NC(=O)[C@H]([C@H](O)[C@H](C)C/C=C/c2cccs2)N(C)C(=O)[C@H](C(C)C)N(C)C(=O)[C@H](CC(C)C)N(C)C(=O)[C@H](CC(C)C)N(C)C(=O)[C@@H](C)NC(=O)[C@H](C)NC(=O)[C@H](CC(C)C)N(C)C(=O)[C@H](C(C)C)NC(=O)[C@H](CC(C)C)N(C)C(=O)C(OCCN(C)C)N(C)C1=O` (some centres unmarked) [Compound 4], the IC50 in assay [1] (setting [3]) amounted to 1160 nM. In addition, in the assay on permeabilized HepG2 (setting [4]), the EC50 came to 867 nM. For the same compound, the Ki on Human CypD (setting [5]) is 11 nM.

With `CC[C@@H]1NC(=O)[C@H]([C@H](O)[C@H](C)C/C=C/c2ccc(OC)cc2)N(C)C(=O)[C@H](C(C)C)N(C)C(=O)[C@H](CC(C)C)N(C)C(=O)[C@H](CC(C)C)N(C)C(=O)[C@@H](C)NC(=O)[C@H](C)NC(=O)[C@H](CC(C)C)N(C)C(=O)[C@H](C(C)C)NC(=O)[C@H](CC(C)C)N(C)C(=O)C(OCCN(C)C)N(C)C1=O` (some centres unmarked) [Compound 5], the IC50 in assay [2] amounted to 2430 nM; in assay [1] (setting [3]) it was 2660 nM. Moreover, the Ki worked out at 5.5 nM on Human CypA and 8.4 nM on Human CypD (setting [5]). Further, the EC50 in the assay with permeabilized HepG2 (setting [4]) worked out at 623 nM.

`CC[C@@H]1NC(=O)[C@H]([C@H](O)[C@H](C)C/C=C/c2ccc3ccccc3c2)N(C)C(=O)[C@H](C(C)C)N(C)C(=O)[C@H](CC(C)C)N(C)C(=O)[C@H](CC(C)C)N(C)C(=O)[C@@H](C)NC(=O)[C@H](C)NC(=O)[C@H](CC(C)C)N(C)C(=O)[C@H](C(C)C)NC(=O)[C@H](CC(C)C)N(C)C(=O)C(OCCN(C)C)N(C)C1=O` (some centres unmarked) [Compound 6]: the IC50 in assay [1] (setting [3]) is above 10000 nM. For the same compound, the EC50 in the assay with permeabilized HepG2 (setting [4]) turned out to be 964 nM. Also, on Human CypD (setting [5]), the Ki turned out to be 6.5 nM.
